Source: patent publication US20070099841A1, “Prodrugs of T3 and T4 with enhanced bioavailability” (New River Pharmaceuticals Inc., priority 2005, published 2007)
Several values for one entry are separate records, joined by “and”; a condition that tells them apart may be missing. Equal entries are not always repeated. Where two headings read alike, the source gives them in different places.

Assays:
[1] = parameters: species or system Sprague-Dawley rats; conditions: rat, in vivo
Procedure: Compounds were tested in Sprague-dawley rats (˜250 g). Defined doses were delivered as oral solutions in 0.5% sodium bicarbonate buffer with T3 sodium salt containing 12 mcgT3/kg or triiodothyronine composition containing the equivalent amount of T3. Rats were dosed immediately following 0 hour serum collection. Serum was collected from rats at 2, 4, 6, 9, 12 and 24 hours after capsule delivery. Total serum T3 concentrations were determined by ELISA using a commercially available kit (Total Triiodothyronine (total T3) ELISA KIT, product #1700, ALPHA DIAGNOSTIC, San Antonio, Tex.). Total serum T4 concentrations were determined by ELISA using a commercially available kit (Total Thyronine (Total T4) ELISA KIT, product #1100, ALPHA DIAGNOSTIC, San Antonio, Tex.).
The general procedures described above were employed for the experimental data described below. These procedures are subject to minor variations in timing and weight of rats, etc.
(§1) T3 sodium, G-T3, V-T3, I-T3, Y-T3, A2-T3, P2-T3, or F2-T3 were administered at equimolar doses to Sprague-Dawley rats (12 μg/kg T3; HED˜120 μg T3 sodium; n=6, per group) that were hypothyroid due to removal of the thyroid gland approximately one week prior to evaluation. Serum was collected at 0 (pre-dose), 1, 2, 4, 6, 8 and 12 hours post-dose and analyzed for total T3 and TSH by chemiluminescent immunoassay (Immulite CIA). […] At 1 hour post dose the mean level of Total T3 was 327.3, 429.5, 432.7, 403.3, 431, and 433.1 ng/ml for G-T3, V-T3, I-T3, Y-T3, P2-T3, and F2-T3 dosed animals respectively as compared to 577 ng/ml for T3 sodium dosed animals. Applicants note that some variation in these values may be present as with A2-T3 (FIGS. 15 and 16).

TSH = assay: Serum TSH after oral administration to hypothyroid rats (chemiluminescent immunoassay); format: in vivo, Sprague-Dawley rats; conditions: for TSH, mean: mean n=6, oral 12 μg/kg T3; for Individual animal TSH: individual animals 1-6, oral 12 μg/kg T3, hydrochloride salt
Procedure: as §1

Total T3 AUC, % (of T3) [1] | Total T3Δ dAUC, % (of T3) [1] | Variability of T3 absorption compared with T3 sodium [1] | mean level of Total T3 at 1 hour post dose ([1]; po) | Structure (SMILES) | TSH, mean (TSH; 0 h (pre-dose)) | TSH, mean (TSH; 1 h) | TSH, mean (TSH; 2 h) | TSH, mean (TSH; 4 h) | TSH, mean (TSH; 6 h) | TSH, mean (TSH; 8 h) | TSH, mean (TSH; 12 h) | TSH levels in response to administration (TSH; oral 12 μg/kg T3) | further results
104.4% | 113.4% | – | – | C[C@H](N)C(=O)N[C@@H](C)C(=O)N[C@@H](Cc1cc(I)c(Oc2ccc(O)c(I)c2)c(I)c1)C(=O)O [A2-T3] | 2.459 μIU | 2.11 μIU | 0.889 μIU | 0.292 μIU | 0.174 μIU | 0.182 μIU | 0.381 μIU | decreased rapidly | –
88.3% | 94.7% | decreased variability of T3 absorption | 433.1 ng/mL | N[C@@H](Cc1ccccc1)C(=O)N[C@@H](Cc1ccccc1)C(=O)N[C@@H](Cc1cc(I)c(Oc2ccc(O)c(I)c2)c(I)c1)C(=O)O [F2-T3] | 3.035 μIU | 2.192 μIU | 1.364 μIU | 0.405 μIU | 0.246 μIU | 0.242 μIU | 0.757 μIU | decreased rapidly | –
– | – | – | – | Cl.NCC(=O)NC(Cc1cc(I)c(Oc2ccc(O)c(I)c2)c(I)c1)C(=O)O (centres unmarked) [G-T3, 2-(2-aminoacetoamido)-3-(4-(4-hydroxy-3-iodophenoxy)-3,5-diiodophenyl) propanoic acid, hydrochloride salt] | 2.021 μIU | 2.098 μIU | 1.289 μIU | 0.292 μIU | 0.162 μIU | 0.151 μIU | 0.427 μIU | – | Tmax, % T3 ([1]; Sprague-Dawley): 125%; Total T3 AUC, % (of T3) ([1]; Sprague-Dawley): 88.1%; Total T3 AUClast, % T3 ([1]; Sprague-Dawley): 89%; Total T3 Cmax, % T3 ([1]; Sprague-Dawley): 79%; Total T3Δ AUClast, % T3 ([1]; Sprague-Dawley): 89%; Total T3Δ Cmax, % T3 ([1]; Sprague-Dawley): 78%; Total T3Δ dAUC, % (of T3) ([1]; Sprague-Dawley): 90.9%; Variability of T3 absorption compared with T3 sodium ([1]; Sprague-Dawley): decreased variability of T3 absorption; Release / absorption of T3 compared with T3 sodium ([1]; Sprague-Dawley, po): delayed release of T3; mean level of Total T3 at 1 hour post dose ([1]; Sprague-Dawley, po, 1 h): 327.3 ng/mL; Individual animal TSH (TSH; 0 h (pre-dose)): 1.680 μIU and 2.584 μIU and 2.304 μIU and 1.956 μIU and 1.860 μIU and 1.740 μIU; Individual animal TSH (TSH; 1 h): 2.660 μIU and 2.564 μIU and 2.392 μIU and 1.960 μIU and 1.612 μIU and 1.400 μIU; Individual animal TSH (TSH; 2 h): 1.340 μIU and 1.472 μIU and 1.648 μIU and 1.160 μIU and 1.104 μIU and 1.008 μIU; Individual animal TSH (TSH; 4 h): 0.364 μIU and 0.352 μIU and 0.296 μIU and 0.216 μIU and 0.276 μIU and 0.248 μIU; Individual animal TSH (TSH; 6 h): 0.232 μIU and 0.172 μIU and 0.152 μIU and 0.112 μIU and 0.205 μIU and 0.100 μIU; Individual animal TSH (TSH; 8 h): 0.232 μIU and 0.172 μIU and 0.136 μIU and 0.124 μIU and 0.168 μIU and 0.076 μIU; Individual animal TSH (TSH; 12 h): 0.540 μIU and 0.612 μIU and 0.224 μIU and 0.548 μIU and 0.268 μIU and 0.372 μIU; TSH levels in response to administration (TSH; oral 12 μg/kg T3, hydrochloride salt): decreased rapidly
96.6% | 100.8% | decreased variability of T3 absorption | 432.7 ng/mL | CC[C@H](C)[C@H](N)C(=O)N[C@@H](Cc1cc(I)c(Oc2ccc(O)c(I)c2)c(I)c1)C(=O)O [I-T3] | 2.331 μIU | 2.218 μIU | 1.203 μIU | 0.351 μIU | 0.169 μIU | 0.131 μIU | 0.271 μIU | decreased rapidly | –
